In article PMC4770715, “LIM kinase inhibitors disrupt mitotic microtubule organization and impair tumor cell proliferation” (Oncotarget, 2015):

Legend:
Experiment in all cases: biochemical
Parameters in all cases: KINOMEscan active-site competition binding, percent of control (100 = no competition)
Details in all cases: competition binding, percent control
[1] = target: T1, JNK3 (Homo sapiens, UniProt P53779)
T1 construct: gene MAPK10
From the text: (§1) Given the potential for the use of LIMK inhibitors as cancer chemotherapeutics, a high-throughput drug discovery and medicinal chemistry program was undertaken. Details of the screening methodology and description of initial hit matter were described in [38]. […] Details of their chemical synthesis are described in Charles et al.. […] These and additional physiochemical parameters are in Supplemental Table 5. […] Kinases inhibited >25% to 50% have yellow circles, 51% to 75% have orange circles, and >76% have red circles. In each case, the size of the circle is proportional to percentage inhibition. LIMK1 and LIMK2 positions are indicated in blue. Illustration reproduced courtesy of Cell Signaling Technology, Inc. (www.cellsignal.com). B. CRT0105950 structure and kinome selectivity mapping as described above. C.

[2] = target: PIK3CD (Homo sapiens, UniProt O00329)
PIK3CD, sequence (O00329 whole entry): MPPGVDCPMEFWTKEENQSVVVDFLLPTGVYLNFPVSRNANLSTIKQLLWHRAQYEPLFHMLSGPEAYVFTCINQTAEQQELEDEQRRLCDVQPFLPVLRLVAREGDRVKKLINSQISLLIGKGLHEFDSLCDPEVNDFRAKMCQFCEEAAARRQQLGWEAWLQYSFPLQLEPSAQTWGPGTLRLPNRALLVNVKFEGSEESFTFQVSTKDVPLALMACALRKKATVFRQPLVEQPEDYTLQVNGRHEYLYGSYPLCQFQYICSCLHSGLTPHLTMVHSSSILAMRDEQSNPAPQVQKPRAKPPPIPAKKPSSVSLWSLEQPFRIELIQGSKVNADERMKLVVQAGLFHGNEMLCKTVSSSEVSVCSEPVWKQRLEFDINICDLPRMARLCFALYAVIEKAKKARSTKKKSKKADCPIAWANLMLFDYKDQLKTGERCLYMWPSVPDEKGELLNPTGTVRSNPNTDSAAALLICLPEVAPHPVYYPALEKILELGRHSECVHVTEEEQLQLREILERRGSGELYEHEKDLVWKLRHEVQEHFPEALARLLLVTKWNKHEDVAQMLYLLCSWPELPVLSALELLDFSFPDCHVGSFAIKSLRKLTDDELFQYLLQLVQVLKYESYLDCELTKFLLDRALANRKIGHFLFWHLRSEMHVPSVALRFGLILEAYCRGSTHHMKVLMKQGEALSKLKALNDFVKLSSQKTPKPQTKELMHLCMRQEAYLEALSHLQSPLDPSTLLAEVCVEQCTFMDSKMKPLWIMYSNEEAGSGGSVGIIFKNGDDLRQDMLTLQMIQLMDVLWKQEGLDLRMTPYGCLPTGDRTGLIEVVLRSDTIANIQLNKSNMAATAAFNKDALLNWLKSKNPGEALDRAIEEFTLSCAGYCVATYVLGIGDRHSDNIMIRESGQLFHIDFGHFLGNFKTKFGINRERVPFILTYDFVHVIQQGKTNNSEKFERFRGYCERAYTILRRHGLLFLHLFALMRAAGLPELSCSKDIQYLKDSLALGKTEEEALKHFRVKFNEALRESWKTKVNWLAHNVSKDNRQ
From the text: as §1

[3] = target: AKT1 (Homo sapiens, UniProt P31749)
From the text: as §1

[4] = target: T2, ERK2 (Homo sapiens, UniProt P28482)
T2 construct: gene MAPK1
From the text: as §1

[5] = target: T3, ERK5 (Homo sapiens, UniProt Q13164)
T3 construct: gene MAPK7
From the text: as §1

[6] = target: T4, IKK-alpha (Homo sapiens, UniProt O15111)
T4 construct: gene CHUK
From the text: as §1

[7] = target: T5, ADCK3 (Homo sapiens, UniProt Q8NI60)
T5 construct: gene COQ8A
T5 sequence (Q8NI60 whole entry): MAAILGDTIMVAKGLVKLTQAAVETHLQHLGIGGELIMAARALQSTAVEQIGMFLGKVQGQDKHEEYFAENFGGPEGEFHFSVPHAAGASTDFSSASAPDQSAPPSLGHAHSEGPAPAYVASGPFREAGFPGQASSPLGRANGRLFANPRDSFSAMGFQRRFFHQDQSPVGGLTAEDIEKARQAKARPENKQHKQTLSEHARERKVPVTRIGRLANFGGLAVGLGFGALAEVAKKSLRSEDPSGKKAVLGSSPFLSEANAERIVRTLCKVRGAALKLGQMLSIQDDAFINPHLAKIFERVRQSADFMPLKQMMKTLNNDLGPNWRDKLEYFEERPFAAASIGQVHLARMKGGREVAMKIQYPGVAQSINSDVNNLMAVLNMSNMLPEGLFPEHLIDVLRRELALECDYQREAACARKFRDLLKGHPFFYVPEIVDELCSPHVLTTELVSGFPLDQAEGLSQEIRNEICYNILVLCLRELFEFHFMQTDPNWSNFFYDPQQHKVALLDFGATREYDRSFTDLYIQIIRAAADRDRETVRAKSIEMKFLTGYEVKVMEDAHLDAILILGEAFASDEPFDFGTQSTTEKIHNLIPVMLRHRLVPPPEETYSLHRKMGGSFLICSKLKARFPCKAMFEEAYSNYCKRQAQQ
From the text: as §1

[8] = target: SRMS (Homo sapiens, UniProt Q9H3Y6)
From the text: as §1

[9] = target: EPHB6 (Homo sapiens, UniProt O15197)
From the text: as §1

[10] = target: ERBB4 (Homo sapiens, UniProt Q15303)
From the text: as §1

[11] = target: MAP3K2 (Homo sapiens, UniProt Q9Y2U5)
MAP3K2, sequence (Q9Y2U5 whole entry): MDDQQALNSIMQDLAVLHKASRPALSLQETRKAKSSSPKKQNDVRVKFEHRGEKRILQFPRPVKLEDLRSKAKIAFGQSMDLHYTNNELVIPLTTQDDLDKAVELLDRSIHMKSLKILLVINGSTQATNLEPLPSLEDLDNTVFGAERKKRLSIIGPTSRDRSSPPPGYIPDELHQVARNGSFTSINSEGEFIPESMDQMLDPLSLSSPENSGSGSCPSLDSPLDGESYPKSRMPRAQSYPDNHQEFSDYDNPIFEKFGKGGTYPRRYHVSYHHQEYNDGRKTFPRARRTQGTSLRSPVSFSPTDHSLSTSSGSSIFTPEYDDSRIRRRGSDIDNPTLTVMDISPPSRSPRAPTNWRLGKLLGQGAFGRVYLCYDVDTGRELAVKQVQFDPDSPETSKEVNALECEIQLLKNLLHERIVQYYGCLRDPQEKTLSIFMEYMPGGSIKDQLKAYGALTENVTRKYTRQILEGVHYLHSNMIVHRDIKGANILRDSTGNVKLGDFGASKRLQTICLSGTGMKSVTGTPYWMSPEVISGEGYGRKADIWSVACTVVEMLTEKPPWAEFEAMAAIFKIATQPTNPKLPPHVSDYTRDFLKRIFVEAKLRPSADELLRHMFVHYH
From the text: as §1

[12] = target: T6, DLK (Homo sapiens, UniProt Q12852)
T6 construct: gene MAP3K12
From the text: as §1

[13] = target: CDK5 (Homo sapiens, UniProt Q00535)
From the text: as §1

[14] = target: PIK3C2G (Homo sapiens, UniProt O75747)
From the text: as §1

[15] = target: T7, ICK (Homo sapiens, UniProt Q9UPZ9)
T7 construct: gene CILK1
From the text: as §1

[16] = target: PIK3CA(Q546K) (Homo sapiens, UniProt P42336, Q546K)
From the text: as §1

[17] = target: MAP3K3 (Homo sapiens, UniProt Q99759)
From the text: as §1

[18] = target: INSRR (Homo sapiens, UniProt P14616)
INSRR, sequence (P14616 whole entry): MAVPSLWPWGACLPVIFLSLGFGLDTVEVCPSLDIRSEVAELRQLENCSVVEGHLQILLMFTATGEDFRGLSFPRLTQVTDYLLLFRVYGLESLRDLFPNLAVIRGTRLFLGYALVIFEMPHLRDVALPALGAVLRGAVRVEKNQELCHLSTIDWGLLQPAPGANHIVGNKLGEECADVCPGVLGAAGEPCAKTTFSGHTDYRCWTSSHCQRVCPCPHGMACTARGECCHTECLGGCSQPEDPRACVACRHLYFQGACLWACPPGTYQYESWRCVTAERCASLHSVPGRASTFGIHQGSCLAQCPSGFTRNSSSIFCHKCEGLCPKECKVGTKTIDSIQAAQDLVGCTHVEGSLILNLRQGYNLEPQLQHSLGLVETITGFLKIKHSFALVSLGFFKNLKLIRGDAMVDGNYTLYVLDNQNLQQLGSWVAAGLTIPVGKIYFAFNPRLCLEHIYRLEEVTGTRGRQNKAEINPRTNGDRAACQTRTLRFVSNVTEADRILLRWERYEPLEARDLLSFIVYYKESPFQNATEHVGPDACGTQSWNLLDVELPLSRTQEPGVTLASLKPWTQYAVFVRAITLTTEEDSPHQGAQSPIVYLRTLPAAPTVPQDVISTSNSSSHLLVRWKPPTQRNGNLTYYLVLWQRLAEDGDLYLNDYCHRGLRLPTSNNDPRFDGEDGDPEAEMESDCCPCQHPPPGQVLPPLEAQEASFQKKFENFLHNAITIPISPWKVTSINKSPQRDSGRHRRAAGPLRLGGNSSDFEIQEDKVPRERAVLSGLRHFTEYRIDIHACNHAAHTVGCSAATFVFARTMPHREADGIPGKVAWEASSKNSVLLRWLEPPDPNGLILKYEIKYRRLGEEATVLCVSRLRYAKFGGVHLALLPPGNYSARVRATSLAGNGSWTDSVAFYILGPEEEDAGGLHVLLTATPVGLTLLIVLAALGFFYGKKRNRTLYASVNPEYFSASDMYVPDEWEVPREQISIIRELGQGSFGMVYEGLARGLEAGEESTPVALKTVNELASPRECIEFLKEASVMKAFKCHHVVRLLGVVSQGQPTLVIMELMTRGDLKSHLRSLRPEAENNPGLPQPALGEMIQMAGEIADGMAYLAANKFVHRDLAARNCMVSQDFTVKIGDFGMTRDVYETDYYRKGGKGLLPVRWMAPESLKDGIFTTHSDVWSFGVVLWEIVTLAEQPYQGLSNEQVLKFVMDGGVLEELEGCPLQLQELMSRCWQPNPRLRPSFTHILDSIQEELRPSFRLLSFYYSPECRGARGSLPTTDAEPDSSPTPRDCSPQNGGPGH
From the text: as §1

[19] = target: T8, ABL1(E255K)-phosphorylated (Homo sapiens, UniProt P00519, E255K)
T8 construct: phosphorylated
From the text: as §1

[20] = target: LATS2 (Homo sapiens, UniProt Q9NRM7)
LATS2, sequence (Q9NRM7 whole entry): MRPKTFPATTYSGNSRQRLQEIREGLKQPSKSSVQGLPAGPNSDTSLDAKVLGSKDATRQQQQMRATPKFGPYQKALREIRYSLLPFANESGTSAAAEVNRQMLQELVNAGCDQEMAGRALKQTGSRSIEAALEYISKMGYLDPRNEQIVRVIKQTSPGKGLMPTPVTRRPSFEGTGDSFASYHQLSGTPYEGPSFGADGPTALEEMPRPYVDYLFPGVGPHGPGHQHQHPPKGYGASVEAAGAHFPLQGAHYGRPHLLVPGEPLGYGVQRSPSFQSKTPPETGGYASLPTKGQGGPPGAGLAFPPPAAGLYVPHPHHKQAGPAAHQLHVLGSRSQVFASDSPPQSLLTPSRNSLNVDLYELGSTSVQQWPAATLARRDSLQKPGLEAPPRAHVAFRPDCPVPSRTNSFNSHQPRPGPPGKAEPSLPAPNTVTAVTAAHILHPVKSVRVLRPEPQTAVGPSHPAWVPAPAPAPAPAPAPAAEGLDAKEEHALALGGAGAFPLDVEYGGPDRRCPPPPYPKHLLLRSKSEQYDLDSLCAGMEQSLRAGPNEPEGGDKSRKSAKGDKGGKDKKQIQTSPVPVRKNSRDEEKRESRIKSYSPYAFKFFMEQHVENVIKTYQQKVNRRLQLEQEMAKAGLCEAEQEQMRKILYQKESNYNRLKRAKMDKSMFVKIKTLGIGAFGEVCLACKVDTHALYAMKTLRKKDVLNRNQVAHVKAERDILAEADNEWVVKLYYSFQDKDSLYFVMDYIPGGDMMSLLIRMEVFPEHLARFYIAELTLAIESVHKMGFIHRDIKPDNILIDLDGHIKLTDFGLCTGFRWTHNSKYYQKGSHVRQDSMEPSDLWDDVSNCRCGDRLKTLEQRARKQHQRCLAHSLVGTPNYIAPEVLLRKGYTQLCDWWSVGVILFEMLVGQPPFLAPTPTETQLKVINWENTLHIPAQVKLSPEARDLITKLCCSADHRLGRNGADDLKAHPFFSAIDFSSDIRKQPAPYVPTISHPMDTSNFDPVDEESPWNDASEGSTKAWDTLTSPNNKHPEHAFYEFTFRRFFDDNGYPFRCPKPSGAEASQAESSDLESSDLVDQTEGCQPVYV
From the text: as §1

[21] = target: T9, MST4 (Homo sapiens, UniProt Q9P289)
T9 construct: gene STK26
From the text: as §1

[22] = target: NEK6 (Homo sapiens, UniProt Q9HC98)
NEK6, sequence (Q9HC98 whole entry): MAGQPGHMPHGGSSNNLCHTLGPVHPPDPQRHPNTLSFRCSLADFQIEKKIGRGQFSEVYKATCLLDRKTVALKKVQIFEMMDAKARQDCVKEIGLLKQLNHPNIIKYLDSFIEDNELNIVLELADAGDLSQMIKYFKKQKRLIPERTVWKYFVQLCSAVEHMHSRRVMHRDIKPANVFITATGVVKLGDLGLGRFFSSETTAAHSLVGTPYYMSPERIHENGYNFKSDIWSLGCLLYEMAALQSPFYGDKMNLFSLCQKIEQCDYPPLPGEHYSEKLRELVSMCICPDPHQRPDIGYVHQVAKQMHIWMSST
From the text: as §1

[23] = target: T10, ASK1 (Homo sapiens, UniProt Q99683)
T10 construct: gene MAP3K5
From the text: as §1

| Compound | remaining binding at 10 µM [1] [%] | remaining binding at 10 µM [2] [%] | remaining binding at 10 µM [3] [%] | remaining binding at 10 µM [4] [%] | remaining binding at 10 µM [5] [%] | remaining binding at 10 µM [6] [%] | remaining binding at 10 µM [7] [%] | remaining binding at 10 µM [8] [%] | remaining binding at 10 µM [9] [%] | remaining binding at 10 µM [10] [%] | remaining binding at 10 µM [11] [%] | remaining binding at 10 µM [12] [%] | remaining binding at 10 µM [13] [%] | remaining binding at 10 µM [14] [%] | remaining binding at 10 µM [15] [%] | remaining binding at 10 µM [16] [%] | remaining binding at 10 µM [17] [%] | remaining binding at 10 µM [18] [%] | remaining binding at 10 µM [19] [%] | remaining binding at 10 µM [20] [%] | other results |
| --- | --- | --- | --- | --- | --- | --- | --- | --- | --- | --- | --- | --- | --- | --- | --- | --- | --- | --- | --- | --- | --- |
| COc1ccc(-c2cnccc2-c2cnc(NC(=O)C(C)C)s2)c(C(F)(F)F)c1 [CRT0105446, N-{5-[3-(4-Methoxy-2-trifluoromethyl-phenyl)-pyridin-4-yl]-hiazol-2-yl}-isobutyramide] | 36 | 100 | 100 | 100 | 86 | 89 | 98 | 93 | 86 | 100 | 82 | 100 | 60 | 100 | 18 | 100 | 100 | 96 | 78 | 90 | remaining binding at 10 µM [21]: 61%; remaining binding at 10 µM [22]: 95%; remaining binding at 10 µM [23]: 100% |
| Cc1ccc(-c2cnccc2-c2cnc(Nc3ccc(O)cc3)s2)c(Cl)c1 [CRT0105950, 4-{5-[3-(2-Chloro-4-methyl-phenyl)-pyridin-4-yl]-thiazol-2-ylamino}-phenol] | 25 | 100 | 100 | 100 | 93 | 94 | 56 | 87 | 17 | 94 | 15 | 100 | 12 | 95 | 19 | 100 | 20 | 0.15 | 79 | 6 | remaining binding at 10 µM [21]: 37%; remaining binding at 10 µM [22]: 100%; remaining binding at 10 µM [23]: 100% |
